Assays:
[1] = Specific gravity of tamponading agents; assay type: physicochemical
Excerpt: Soluble Mixtures of Partially Fluorinated Ethers. The presence of the hydrocarbon chain in the structure of formula (I) has a large effect on the solubility properties of the molecule. The partially fluorinated ethers of formula (I) are completely miscible with certain perfluorocarbons, such as perfluoro-n-octane (“PFnO”) (C8F18), perfluoroethylcyclohexane (C8F16), perfluorodecalin (C10F18), and perfluorophenanthrene (C14F24). The solubility of formula (I) liquids with perfluorocarbons enables the design of soluble mixtures that can be used as long-term postoperative tamponade agents that have a specific gravity less than 1.6 or 1.5 such that the probability of retinal damage due to weight is reduced. For example, the commonly used intraoperative perfluorocarbon, PFnO, has a specific gravity of about 1.7. Thus, in order to make a soluble mixture of PFnO and DFPE (which has a specific gravity of about 1.3) that has a specific gravity less than 1.6 or 1.5, then one can use a greater amount of DFPE to reduce the specific gravity of the soluble mixture. For example, a mixture comprising about 25% PFnO and about 75% DFPE has a specific gravity of 1.39 at body temperature (see Table 1). This general strategy of mixing lighter partially fluorinated ether liquids with perfluorocarbon liquids can be conducted with any of the formula (I) liquids and a perfluorocarbon liquid, as long as they are miscible. Further, one can also make soluble mixtures between different partially fluorinated ethers in order to obtain a liquid tamponade agent that has a preferred specific gravity.
Further, one can use the strategy of mixing partially fluorinated ether liquids of formula (I) with lighter tamponade liquids, such as silicone, in order to resolve buoyancy problems and to increase tamponade force. As described previously, because silicone liquids are lighter than water and are immiscible in water, silicone liquids form a globule that rises above aqueous solutions. To rectify this problem, partially fluorinated ether liquids can be mixed with silicone liquids and oils such that soluble mixture has a specific gravity greater than 1.0. In one embodiment, partially fluorinated ether and silicone solutions have a specific gravity between about 1.00 and about 1.06. For example, DFPE can be mixed with silicone oil (such as dimethyl siloxane) and be soluble in silicone oil up to about 20% DFPE (weight to weight (w/w)). Thus, the invention contemplates DFPE and silicone mixtures where DFPE comprises between about 10% and about 20% of the solution and where silicone comprises between about 90% and about 80% of the solution. In one embodiment, a soluble mixture comprises between about 15% and about 18% (w/w) DFPE and between about 85% and about 82% (w/w) silicone oil. In another embodiment, a soluble mixture of about 18% (w/w) DFPE and about 82% (w/w) silicone oil has a specific gravity of about 1.02 at 37° C. In another embodiment, a soluble mixture of about 20% (w/w) DFPE and about 80% (w/w) silicone oil has a specific gravity of about 1.02-1.03. Perfluorocarbon liquids cannot be easily mixed with silicone liquids because perfluorocarbon liquids, not having any hydrocarbons, are only soluble up to less than about 1000 ppm with silicone.

[2] = Tamponade force calculated from specific gravity difference to fluid vitreous; assay type: physicochemical; set-up: unit not given beside the values; settings: difference in specific gravity to fluid vitreous (1.03) multiplied by volume of tamponade agent (5 mL)
eye [3] = settings: in vivo
Excerpt: FIG. 4 and FIG. 5 show results indicating the long term biocompatibility of the eye to decafluoro-di-n-pentyl ether. […] Thus, the above characteristics, combined with the specific-gravity characteristics of the partially fluorinated ethers of formula (I), allow for their long-term use in the eye without damage, and with improved efficacy, convenience and biocompatibility. […] The invention contemplates the use of liquid tamponade agents comprising partially fluorinated ethers according to formula (I) for postoperative periods such as: hours, days, weeks, 1 month, 2 months, 3 months, greater than 3 months, greater than 6 months, up to 1 year, up to 2 years or more. Period greater than 1 year are not generally required for tamponade.

[4] = assay type: physicochemical
Description: (§1) DFPE liquid is stable. […] Further, a mixture of DFPE in silicone (20% DFPE (w/w) and 80% silicone (w/w)) is stable through daily temperature cycling (20-40° C.) through at least 18 months. Further with respect to water insolubility, a single drop of DFPE (about 50 ppm) added to one liter of water remains visible, unchanged and undissolved for long periods of time (at least greater than 8 months).

[5] = Water insolubility (single drop in one liter of water); assay type: physicochemical; settings: single drop (about 50 ppm) added to one liter of water
Description: as §1

eye [6] = assay: Gas chromatography of DFPE recovered from the eye; assay type: in vivo; settings: after one month of residence time in the eye
[7] = assay type: physicochemical; remark: listed apart in the source
Excerpt: Soluble Mixtures of Partially Fluorinated Ethers. The presence of the hydrocarbon chain in the structure of formula (I) has a large effect on the solubility properties of the molecule. The partially fluorinated ethers of formula (I) are completely miscible with certain perfluorocarbons, such as perfluoro-n-octane (“PFnO”) (C8F18), perfluoroethylcyclohexane (C8F16), perfluorodecalin (C10F18), and perfluorophenanthrene (C14F24). The solubility of formula (I) liquids with perfluorocarbons enables the design of soluble mixtures that can be used as long-term postoperative tamponade agents that have a specific gravity less than 1.6 or 1.5 such that the probability of retinal damage due to weight is reduced. For example, the commonly used intraoperative perfluorocarbon, PFnO, has a specific gravity of about 1.7. Thus, in order to make a soluble mixture of PFnO and DFPE (which has a specific gravity of about 1.3) that has a specific gravity less than 1.6 or 1.5, then one can use a greater amount of DFPE to reduce the specific gravity of the soluble mixture. For example, a mixture comprising about 25% PFnO and about 75% DFPE has a specific gravity of 1.39 at body temperature (see Table 1). […]

[8] = Viscosity of tamponading agents; assay type: physicochemical
[9] = Refractive index of tamponading agents; assay type: physicochemical; settings: Table 1
[10] = Boiling point of tamponading agents; settings: Table 1
[11] = approximate, no temperature stated

SMILES	Specific Gravity ([1]; Table 1)	Specific Gravity [1, 11]	Specific Gravity ([1]; at body temperature)	Tamponade Force [2]	amplitudes of electroretinographic responses (eye [3])	implicit times of electroretinographic responses (eye [3])	stability to sunlight exposure [4]	stable over time ([4]; ambient temperature)	stable when exposed to heat ([4]; heat exposure)	time a single drop remains visible, unchanged and undissolved in water [5]	changes in composition of DFPE recovered from the eye (eye [6])	solubility in silicone oil [7]	Viscosity (centistrokes at 25° C.) [8] [centistrokes]	Refractive Index [9]	Boiling Point [10] [°C]
FC(F)(F)C(F)(F)CCCOCCCC(F)(F)C(F)(F)F [DFPE, decafluoro-di-n-pentyl ether]	1.31	about 1.3	1.31	1.4	does not exhibit any negative effects	does not exhibit any negative effects	stable to sunlight exposure	at least 2 years	up to 95 °C	greater than 8 months	less than 0.05%	up to 20 % (w/w)			
FC1(F)C(F)(F)C(F)(F)C2(F)C(F)(F)C(F)(F)C(F)(F)C(F)(F)C2(F)C1(F)F (stereo not shown) [Perfluorodecalin, perfluorodecalin]	1.94			4.55									2.7	1.31	177
FC(F)(F)C(F)(F)C(F)(F)C(F)(F)C(F)(F)C(F)(F)C(F)(F)C(F)(F)F [PFnO, perfluoro-n-octane]	1.76	about 1.7		3.65									0.8	1.27	105
Fc1c(F)c(F)c2c(c1F)c(F)c(F)c1c(F)c(F)c(F)c(F)c12 [Perfluorophenanthrene, perfluorophenanthrene]	2.03			5.0									8.03	1.28	215

Reference: US20070219162A1, “Partially-fluorinated ethers, compositions and uses thereof, for long-term tamponade in the eye” (THE TRUSTEES OF COLUMBIA UNIVERSITY IN THE CITY OF NEW YORK, priority 2004, published 2007)
